According to patent US8415342B2, “Besifloxacin ophthalmic composition for the treatment or control of infection” (Bausch & Lomb Incorporated, priority 2008, dated 2013):
≈ marks a conversion by molar mass, not a printed value. Where “and” joins values, the source holds several entries; their conditions need not be identical. Equal entries are not always repeated.

How the values were obtained:
bacterial conjunctivitis = assay: Study 434: besifloxacin ophthalmic suspension vs Vigamox, TID 5 days; format: in vivo, human; details: for Clinical Resolution (2 indices), No / Clinical Resolution (2 indices), Yes: mITT culture-confirmed as treated; for Microbial Eradication, No / Microbial Eradication, Yes: missing or discontinued imputed as no, as treated
[1] = test system: S. aureus topoisomerase mutants; assay: MIC against defined topoisomerase mutants; format: cell-based; details: Staphylococcus aureus
[2] = test system: genetically concordant pathogens of Visit 2 or Visit 3; assay: Resistance development: PFGE and MIC testing of concordant isolate pairs from baseline and follow-up visits; format: cell-based
Method: PFGE testing was performed per standard procedures.
Isolate pairs from eyes with the same species at or above threshold at both baseline and follow-up visits were evaluated by Pulsed Field Gel Electrophoresis (PFGE) analysis to (i) distinguish new infections from recurrence and (ii) determine if any microbial eradication failures were correlated with antimicrobial resistance development during the study period.

[3] = test system: baseline bacterial conjunctival pathogens; assay: Integrated species-specific microbial eradication, Studies 373, 433, 434; format: in vivo, human; details: for Microbial eradication rate / Microbial eradication rate (eradicated/total): culture-confirmed, as-treated population (Global); for microbial eradication rate, all species combined: Studies 373, 433, 434 integrated, global (US and Asia)
S. pneumoniae DNA gyrase = S. pneumoniae DNA gyrase (Streptococcus pneumoniae serotype 4, UniProt P0A4L9+P72524); assay: Cleavable complex stimulation (CC25), DNA gyrase; format: biochemical; details: S. pneumoniae enzymes; concentration that produces 25% linearization of the DNA
Chain of S. pneumoniae DNA gyrase (P72524 whole entry): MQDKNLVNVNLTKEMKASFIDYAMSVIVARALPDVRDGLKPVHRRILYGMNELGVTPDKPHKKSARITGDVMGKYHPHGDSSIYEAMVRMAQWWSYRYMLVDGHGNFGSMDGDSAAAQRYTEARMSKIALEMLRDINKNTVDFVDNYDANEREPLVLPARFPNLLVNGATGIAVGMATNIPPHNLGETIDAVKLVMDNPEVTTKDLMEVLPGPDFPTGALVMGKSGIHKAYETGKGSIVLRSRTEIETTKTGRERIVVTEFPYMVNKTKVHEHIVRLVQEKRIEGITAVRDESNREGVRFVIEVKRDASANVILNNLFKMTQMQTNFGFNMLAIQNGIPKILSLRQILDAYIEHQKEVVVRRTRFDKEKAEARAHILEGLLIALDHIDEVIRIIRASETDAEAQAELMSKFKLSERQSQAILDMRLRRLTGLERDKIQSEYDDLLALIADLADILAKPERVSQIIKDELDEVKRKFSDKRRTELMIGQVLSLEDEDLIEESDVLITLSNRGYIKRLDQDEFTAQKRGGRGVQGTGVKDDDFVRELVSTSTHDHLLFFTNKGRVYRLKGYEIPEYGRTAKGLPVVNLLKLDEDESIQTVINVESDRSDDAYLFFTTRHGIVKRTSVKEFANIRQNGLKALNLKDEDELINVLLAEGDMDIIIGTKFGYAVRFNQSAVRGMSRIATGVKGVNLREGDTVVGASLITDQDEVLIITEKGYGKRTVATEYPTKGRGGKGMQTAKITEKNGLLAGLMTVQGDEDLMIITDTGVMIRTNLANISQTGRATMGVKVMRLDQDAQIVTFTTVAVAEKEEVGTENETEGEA
Chain of S. pneumoniae DNA gyrase (P0A4L9 whole entry): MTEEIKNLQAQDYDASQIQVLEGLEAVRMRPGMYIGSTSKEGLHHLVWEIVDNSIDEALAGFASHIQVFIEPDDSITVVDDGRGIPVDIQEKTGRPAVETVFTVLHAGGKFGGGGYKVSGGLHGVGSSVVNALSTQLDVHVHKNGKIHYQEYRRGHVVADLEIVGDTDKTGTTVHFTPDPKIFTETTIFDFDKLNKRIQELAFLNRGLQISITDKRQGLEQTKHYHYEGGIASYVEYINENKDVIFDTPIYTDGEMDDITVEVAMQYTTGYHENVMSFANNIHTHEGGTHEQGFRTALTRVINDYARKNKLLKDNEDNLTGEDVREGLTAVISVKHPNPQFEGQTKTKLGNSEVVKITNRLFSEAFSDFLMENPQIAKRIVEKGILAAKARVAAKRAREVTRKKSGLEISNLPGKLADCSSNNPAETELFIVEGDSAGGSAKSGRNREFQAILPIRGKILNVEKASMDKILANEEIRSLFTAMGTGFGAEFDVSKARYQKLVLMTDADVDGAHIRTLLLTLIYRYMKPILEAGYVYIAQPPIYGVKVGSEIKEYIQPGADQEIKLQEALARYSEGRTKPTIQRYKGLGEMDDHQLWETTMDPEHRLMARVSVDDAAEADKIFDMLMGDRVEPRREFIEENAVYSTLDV

[4] = Safety pharmacology: in vivo cardiovascular effects after systemic dosing
Description: The in vivo cardiovascular effects, specifically, an increase in QT duration, following besifloxacin systemic dosing were only observed after doses that were at least 300 times the intended ocular daily dose. There was no change in heart rate, blood pressure, or cardiac conduction.

[5] = Visit 2 (Day 5 ± 1), primary endpoint
[6] = C. pseudodiphtheriticum, Visit 2
[7] = C. pseudodiphtheriticum, Visit 3
[8] = CDC coryneform group G, Visit 2
[9] = CDC coryneform group G, Visit 3
[10] = S. mitis group (only isolates identified as S. mitis or S. mitis group), Visit 2
[11] = S. mitis group (only isolates identified as S. mitis or S. mitis group), Visit 3

N[C@@H]1CCCCN(c2c(F)cc3c(=O)c(C(=O)O)cn(C4CC4)c3c2Cl)C1 [Besifloxacin, (R)-(+)-(3-amino-2,3,4,5,6,7-hexahydro-1H-azepin-1-yl)-8-chloro-1-cyclopropyl-6-fluoro-1,4,-dihydro-4-oxo-3-quinolinecarboxylic acid]
Clinical Resolution (2 indices), No (bacterial conjunctivitis; Visit 2 (Day 5 ± 1)): 105 (41.7) n (%) | Microbial Eradication, No (bacterial conjunctivitis; Visit 2 (Day 5 ± 1)): 17 (6.7) n (%) | Clinical Resolution (2 indices), Yes (bacterial conjunctivitis; [5]): 147 (58.3) n (%) | Microbial Eradication, Yes (bacterial conjunctivitis; [5]): 235 (93.3) n (%) | Clinical Resolution (2 indices), No (bacterial conjunctivitis; Visit 3 (Day 8 or 9)): 39 (15.5) n (%) | Clinical Resolution (2 indices), Yes (bacterial conjunctivitis; Visit 3 (Day 8 or 9)): 213 (84.5) n (%) | Microbial Eradication, No (bacterial conjunctivitis; Visit 3 (Day 8 or 9)): 32 (12.7) n (%) | Microbial Eradication, Yes (bacterial conjunctivitis; Visit 3 (Day 8 or 9)): 220 (87.3) n (%) | MIC ([1]; S. aureus Wild type): 0.03 µg/mL (≈ 0.0762 µM) | MIC ([1]; S. aureus parC S80F (or E84K)): 0.06 µg/mL (≈ 0.152 µM) | MIC ([1]; S. aureus parC S80F + gyrA S84L): 0.5 µg/mL | increase of MIC of Visit 2 or Visit 3 isolates versus baseline ([2]; Study 373, 47 genetically concordant isolate pairs): ≤ 2 fold | increase of MIC of Visit 2 or Visit 3 isolates versus baseline ([2]; Study 433, 122 genetically concordant isolate pairs): ≤ 2 fold | increase of MIC of Visit 2 or Visit 3 isolates versus baseline ([2]; Study 434, 65 genetically concordant isolate pairs): ≤ 2 fold | Microbial eradication rate ([3]; All species, Visit 2): (92.2%) | Microbial eradication rate (eradicated/total) ([3]; All species, Visit 2): 606/656 | Microbial eradication rate ([3]; All species, Visit 3): (88.4%) | Microbial eradication rate (eradicated/total) ([3]; All species, Visit 3): 580/656 | Microbial eradication rate [3, 6]: (100.0%) | Microbial eradication rate (eradicated/total) [3, 6]: 6/6 | Microbial eradication rate [3, 7]: (100.0%) | Microbial eradication rate (eradicated/total) [3, 7]: 6/6 | Microbial eradication rate ([3]; C. striatum, Visit 2): (100.0%) | Microbial eradication rate (eradicated/total) ([3]; C. striatum, Visit 2): 5/5 | Microbial eradication rate ([3]; C. striatum, Visit 3): (100.0%) | Microbial eradication rate (eradicated/total) ([3]; C. striatum, Visit 3): 5/5 | Microbial eradication rate [3, 8]: (93.8%) | Microbial eradication rate (eradicated/total) [3, 8]: 15/16 | Microbial eradication rate [3, 9]: (93.8%) | Microbial eradication rate (eradicated/total) [3, 9]: 15/16 | Microbial eradication rate ([3]; Gram-negative, Visit 2): (92.3%) | Microbial eradication rate (eradicated/total) ([3]; Gram-negative, Visit 2): 193/209 | Microbial eradication rate ([3]; Gram-negative, Visit 3): (90.0%) | Microbial eradication rate (eradicated/total) ([3]; Gram-negative, Visit 3): 188/209 | Microbial eradication rate ([3]; Gram-positive, Visit 2): (92.2%) | Microbial eradication rate (eradicated/total) ([3]; Gram-positive, Visit 2): 412/447 | Microbial eradication rate ([3]; Gram-positive, Visit 3): (87.7%) | Microbial eradication rate (eradicated/total) ([3]; Gram-positive, Visit 3): 392/447 | Microbial eradication rate ([3]; H. influenzae, Visit 2): (91.0%) | Microbial eradication rate (eradicated/total) ([3]; H. influenzae, Visit 2): 152/167 | Microbial eradication rate ([3]; H. influenzae, Visit 3): (88.6%) | Microbial eradication rate (eradicated/total) ([3]; H. influenzae, Visit 3): 148/167 | Microbial eradication rate ([3]; M. lacunata, Visit 2): (100.0%) | Microbial eradication rate (eradicated/total) ([3]; M. lacunata, Visit 2): 5/5 | Microbial eradication rate ([3]; M. lacunata, Visit 3): (80.0%) | Microbial eradication rate (eradicated/total) ([3]; M. lacunata, Visit 3): 4/5 | Microbial eradication rate ([3]; S. aureus, Visit 2): (87.1%) | Microbial eradication rate (eradicated/total) ([3]; S. aureus, Visit 2): 81/93 | Microbial eradication rate ([3]; S. aureus, Visit 3): (83.9%) | Microbial eradication rate (eradicated/total) ([3]; S. aureus, Visit 3): 78/93 | Microbial eradication rate ([3]; S. epidermidis, Visit 2): (94.0%) | Microbial eradication rate (eradicated/total) ([3]; S. epidermidis, Visit 2): 47/50 | Microbial eradication rate ([3]; S. epidermidis, Visit 3): (88.0%) | Microbial eradication rate (eradicated/total) ([3]; S. epidermidis, Visit 3): 44/50 | Microbial eradication rate ([3]; S. hominis, Visit 2): (83.3%) | Microbial eradication rate (eradicated/total) ([3]; S. hominis, Visit 2): 5/6 | Microbial eradication rate ([3]; S. hominis, Visit 3): (100.0%) | Microbial eradication rate (eradicated/total) ([3]; S. hominis, Visit 3): 6/6 | Microbial eradication rate ([3]; S. lugdunensis, Visit 2): (100.0%) | Microbial eradication rate (eradicated/total) ([3]; S. lugdunensis, Visit 2): 5/5 | Microbial eradication rate ([3]; S. lugdunensis, Visit 3): (100.0%) | Microbial eradication rate (eradicated/total) ([3]; S. lugdunensis, Visit 3): 5/5 | Microbial eradication rate [3, 10]: (89.5%) | Microbial eradication rate (eradicated/total) [3, 10]: 17/19 | Microbial eradication rate [3, 11]: (84.2%) | Microbial eradication rate (eradicated/total) [3, 11]: 16/19 | Microbial eradication rate ([3]; S. oralis, Visit 2): (90.9%) | Microbial eradication rate (eradicated/total) ([3]; S. oralis, Visit 2): 10/11 | Microbial eradication rate ([3]; S. oralis, Visit 3): (72.7%) | Microbial eradication rate (eradicated/total) ([3]; S. oralis, Visit 3): 8/11 | Microbial eradication rate ([3]; S. pneumoniae, Visit 2): (92.8%) | Microbial eradication rate (eradicated/total) ([3]; S. pneumoniae, Visit 2): 142/153 | Microbial eradication rate ([3]; S. pneumoniae, Visit 3): (86.3%) | Microbial eradication rate (eradicated/total) ([3]; S. pneumoniae, Visit 3): 132/153 | Microbial eradication rate ([3]; S. salivarius, Visit 2): (100.0%) | Microbial eradication rate (eradicated/total) ([3]; S. salivarius, Visit 2): 5/5 | Microbial eradication rate ([3]; S. salivarius, Visit 3): (80.0%) | Microbial eradication rate (eradicated/total) ([3]; S. salivarius, Visit 3): 4/5 | microbial eradication rate, all species combined ([3]; Visit 2): 92.2% | microbial eradication rate, all species combined ([3]; Visit 3): 88.4% | CC25 Gyrase (S. pneumoniae DNA gyrase): 2.5 μM and 1 μg/mL | dose at which an increase in QT duration was observed [4]: at least 300 times the intended ocular daily dose | heart rate, blood pressure, or cardiac conduction [4]: no change
